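Interpolation was linear, between the two tested concentrations surrounding the appropriate level; five concentrations were tested over 48 hours in 96-well plates. At the GI50, growth is halved. TGI: total growth inhibition.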
Experiments:
Assay in all cases: inhibition of tumour cell growth, NCI panel, 48 h
MDA-MB-231 breast = system: MDA-MB-231 breast
SK-MEL-2 melanoma = system: SK-MEL-2 melanoma
SNB-19 CNS = system: SNB-19 CNS
NCI-H226 lung = system: NCI-H226 lung
LOX IMVI melanoma = system: LOX IMVI melanoma
CAKI-1 renal = system: CAKI-1 renal
SK-MEL-28 melanoma = system: SK-MEL-28 melanoma
OVCAR-8 ovarian = system: OVCAR-8 ovarian
A498 renal = system: A498 renal
HCC-2998 colon = system: HCC-2998 colon

Row | Compound | TGI (MDA-MB-231 breast) [µM] | TGI (SK-MEL-2 melanoma) [µM] | TGI (SNB-19 CNS) [µM] | TGI (NCI-H226 lung) [µM] | TGI (LOX IMVI melanoma) [µM] | TGI (CAKI-1 renal) [µM] | TGI (SK-MEL-28 melanoma) [µM] | TGI (OVCAR-8 ovarian) [µM] | TGI (A498 renal) [µM] | TGI (HCC-2998 colon) [µM] | GI50 (MDA-MB-231 breast) [µM] | GI50 (SK-MEL-2 melanoma) [µM] | GI50 (SNB-19 CNS) [µM] | GI50 (NCI-H226 lung) [µM] | GI50 (LOX IMVI melanoma) [µM] | GI50 (CAKI-1 renal) [µM] | GI50 (SK-MEL-28 melanoma) [µM] | GI50 (HCC-2998 colon) [µM] | GI50 (OVCAR-8 ovarian) [µM] | GI50 (A498 renal) [µM]
1 | C/C(=N\NS(=O)(=O)c1ccc(C)cc1)P(=O)(O)O | > 100 | > 100 | > 100 | > 100 | > 100 | > 100 | > 100 | > 100 | > 100 |  |  |  |  |  |  |  |  |  |  | 
2 | CC(Nc1ccc(S(=O)(=O)N=C(N)N)cc1)c1c2ccccc2nc2ccccc12 (stereo not given) |  | 61.9 | > 100 | 80.4 | > 100 | 81 | > 100 | 76.8 |  | 82.7 |  |  |  |  |  |  |  |  |  | 
3 | CCN(CC)CCCNCc1cc(-c2ccccc2)nc2ccccc12 | 24 | 22.9 | > 100 | > 100 | 11.4 | > 100 | 22.4 | 10.6 | 41.3 | 31.1 | 3.99 | 10.2 | 14.2 | 19.8 | 2.32 | 19.5 | 10.2 | 14.9 | 3.21 | 12.3
4 | CC(=O)c1c(C)[nH]c(-c2nc3ccc(N4CCN(C)CC4)cc3[nH]2)c1-c1ccc(N(C)C)cc1 | 16.9 | 17.6 | > 100 | 32.9 | 1.85 | 13.9 | 18.7 | > 84.1 | 1.98 | 8.38 | 0.645 | 2.58 | 1.89 | 1.95 | 0.359 | 0.309 | 2.47 | 1.06 | 2.33 | 0.323
5 | O=C(COc1cc(O)c2c(=O)cc(-c3ccccc3)oc2c1)Nc1ccccc1C(F)(F)F | 5.26 | 38 | 21.7 | 6.48 | 22.6 | 18.7 |  | 32.1 | 17.8 | > 100 | 2.04 | 15.1 | 4.17 | 2.28 | 4.74 | 3.74 |  | > 100 | 3.67 | 4.04
6 | O=C(Nc1ccc(Cl)c(Cl)c1)Nc1c(Oc2ccc(Cl)c(Cl)c2)ccc(Cl)c1S(=O)(=O)O | 66.8 |  | > 100 | > 100 | > 100 |  | > 100 | > 100 | 6.26 | > 100 | 1.98 |  | 3.42 | 3.91 | 1.96 |  | 4.05 | 2.11 | 3.7 | 1.53
7 | Cc1cc(N2CCOCC2)nc(N[C@@H]2CCC[C@H](Nc3ccnc4cc(Cl)ccc34)C2)n1 | 3.58 | 4.02 | 12.2 | 17.1 | 3.3 |  | 3.8 | 8.49 | 4.4 | 4.55 | 1.7 | 2.07 | 3.35 | 4.89 | 1.71 |  | 2.01 | 2.05 | 2.97 | 1.57
8 | C[As](C)SCC(COC(=O)C(Cl)c1ccccc1)OC(=O)C(Cl)c1ccccc1 (stereo not given) | 4.95 |  | 50 | 41.8 |  | 6.58 | 28.1 | > 35.2 | 17.2 | 4.75 | 1.53 |  | 14.5 | 20.1 |  | 0.506 | 10.6 | 1.72 | 3.41 | 4.34
9 | CO/N=C(\C)c1ccc(Nc2cc(-c3ccccc3)nc3ccc(OC)cc23)cc1 | 3.24 | > 100 | > 100 | 5.63 |  | 5.16 | > 100 |  |  | 15.9 | 1.23 | 6.27 | 5.97 | 2.25 |  | 2.05 | 29.4 | 3.16 |  | 
10 | O=c1ncc(F)cn1C1OC(CO)C(O)C1O (stereo not given) |  | > 46.5 | > 69 | > 100 | > 59.8 | > 100 | > 46.4 | > 100 | > 100 | > 51.4 |  |  |  |  |  |  |  |  |  | 
11 | COC(=O)C(C(=O)OC)C1CCCC(=O)C1 (stereo not given) |  | 0.503 | > 100 |  | > 100 |  | > 100 | > 100 | > 100 | > 100 |  |  |  |  |  |  |  |  |  | 
12 | COC(=O)C(C(=O)C(=O)Nc1ccc([N+](=O)[O-])cc1[N+](=O)[O-])c1nc2ccc(Cl)cc2[nH]c1=O (stereo not given) |  | > 100 | > 100 | > 100 | > 100 | > 100 | > 100 | > 100 | > 100 | > 100 |  |  |  |  |  |  |  |  |  | 
13 | C#Cc1c(/C=C/C(=O)OCC)ccc2ccccc12 | 35 |  | > 100 | 82.9 | 27.4 | 56.7 | 39.7 | > 100 | 37.8 | > 100 | 13.4 |  | 36.8 | 19.9 | 13.1 | 21.4 | 13.7 | 27.4 | 35.1 | 15.2
14 | CN1C(=O)C2C3C=C4c5ccccc5N(c5ccccc5)C4(C2C1=O)[C@H]1C(=O)N(C)C(=O)[C@@H]31 (stereo not given in full) |  | > 100 | > 100 | > 100 | > 100 |  | > 100 | > 100 | > 100 | > 100 |  |  |  |  |  |  |  |  |  | 
15 | CN(C)CCNC(=O)c1cccc(N(C)C(=O)c2ccccc2)c1[N+](=O)[O-] | > 100 | > 100 | > 100 | > 100 |  | > 100 | > 100 | > 100 | > 100 | > 100 |  |  |  |  |  |  |  |  |  | 
16 | Cc1ccc(S(=O)(=O)NC2(C=O)CCCC3CCCCC32)cc1 (stereo not given) |  | > 100 | > 100 | > 100 |  | > 100 | > 100 | > 100 | > 100 | > 100 |  |  |  |  |  |  |  |  |  | 
17 | NC(=O)/N=C1/CCC2C3CCCC2C13 |  | > 100 | > 100 | > 100 | > 100 | > 100 | > 100 | > 100 |  | > 100 |  |  |  |  |  |  |  |  |  | 

— PubChem BioAssay (NCI)
